What was measured:
Botrytis allii [1] = assay: Inhibition of phytopathogenic fungi growth, laboratory test on potato-dextrose agar; type: cell-based; conditions: active principle 0.01 % by mass in potato-dextrose agar
Method: (§1) A fungicidal composition based on this compound was prepared in the form of a 0.01% solution thereof in distilled water. A fungicidal action of the composition, according to the invention, was tested for inhibition of vegetative fungi growth such as Fusarium moniliforme, Ventura inaequalis, Rhyzoctonia ciolaceae, Botrytis cinereae, Verticillium albo-atrum, Diplodia zeae, Fusarium oxysporum, Rhoma betae, Rhyzoctonia aderholdii, Aspergillus niger, Alternaria sobani, Botrytis allii, Aspergillus fumigatis, Fusarium culmorum, Penicillium cyclopium affecting potato, sugar beet, cotton seeds either in laboratory or field conditions. For testing it to the Petri dishes containing potato-dextrose agar the composition of the invention was.added at the concentration of an active principle of 0.01 % by mass. The Petri dishes containing the same agar culture were inoculated with a mycelium of phytopathogenic fungi. For control dishes the phytopathogenic fungi were inoculated on agar without using the composition of the invention. A fungicidal effect of the composition, according to the invention was tested in comparison with the known fungicidal compositions based on 2,3-dichloro-1,4-naphthoquinone, zinc N,N'-ethylene-bis-dithiocarbamate and tetramethylthiuram disulphide.

Fusarium oxysporum [2] = assay: as above; type: cell-based; conditions: active principle 0.01 % by mass in potato-dextrose agar
Method: as §1

Aspergillus niger [3] = assay: as above; type: cell-based; conditions: active principle 0.01 % by mass in potato-dextrose agar
Method: as §1

Rhyzoctonia violaceae [4] = assay: as above; type: cell-based; conditions: active principle 0.01 % by mass in potato-dextrose agar
Method: as §1

Fusarium culmorum [5] = assay: as above; type: cell-based; conditions: active principle 0.01 % by mass in potato-dextrose agar
Method: as §1

Verticillium albo-atrum [6] = assay: as above; type: cell-based; conditions: active principle 0.01 % by mass in potato-dextrose agar
Method: as §1

Alternaria sobani [7] = assay: as above; type: cell-based; conditions: active principle 0.01 % by mass in potato-dextrose agar
Method: as §1

Rhyzoctonia aderholdii [8] = assay: as above; type: cell-based; conditions: active principle 0.01 % by mass in potato-dextrose agar
Method: as §1

Penicillium cyclopium [9] = assay: as above; type: cell-based; conditions: active principle 0.01 % by mass in potato-dextrose agar
Method: as §1

Botrytis cinereae [10] = assay: as above; type: cell-based; conditions: active principle 0.01 % by mass in potato-dextrose agar
Method: as §1

Aspergillus fumigatis [11] = assay: as above; type: cell-based; conditions: active principle 0.01 % by mass in potato-dextrose agar
Method: as §1

Diplodia zeae [12] = assay: as above; type: cell-based; conditions: active principle 0.01 % by mass in potato-dextrose agar
Method: as §1

Venturia inaequalis [13] = assay: as above; type: cell-based; conditions: active principle 0.01 % by mass in potato-dextrose agar
Method: as §1

Rhoma betae [14] = assay: as above; type: cell-based; conditions: active principle 0.01 % by mass in potato-dextrose agar
Method: as §1

Fusarium moniliforme [15] = assay: as above; type: cell-based; conditions: active principle 0.01 % by mass in potato-dextrose agar
Method: as §1

Solubility (qualitative) = conditions: water, alcohols, acetone
Botrytis allii [16] = assay: Inhibition of phytopathogenic fungi, field test on affected potato plants; type: in vivo; conditions: 5 m^2 plots of affected potato plants sprayed
Excerpt: (§2) For field tests the plots of 5 m^2 in size with potato plants affected by Fusarium moniliforme, Venturia inaequalis, Rhyzoctonia violaceae, Botrytis cinereae, Verticillium albo-atrum, Diplodia zeae, Fusarium oxysporum, Rhoma betae, Rhyzoctonia aderholdii, Aspergillus niger, Alternaria sobani, Botrytis allii, Aspergillus fumigatis, Fusarium culmorum, Penicillium cyclopium were sprayed with the fungicide of the invention. To compare, the similar plots of the affected potato plants were aprayed with the known compositions indicated above.

Fusarium oxysporum [17] = assay: as above; type: in vivo; conditions: 5 m^2 plots of affected potato plants sprayed
Excerpt: as §2

Aspergillus niger [18] = assay: as above; type: in vivo; conditions: 5 m^2 plots of affected potato plants sprayed
Excerpt: as §2

Rhyzoctonia violaceae [19] = assay: as above; type: in vivo; conditions: 5 m^2 plots of affected potato plants sprayed
Excerpt: as §2

Fusarium culmorum [20] = assay: as above; type: in vivo; conditions: 5 m^2 plots of affected potato plants sprayed
Excerpt: as §2

Verticillium albo-atrum [21] = assay: as above; type: in vivo; conditions: 5 m^2 plots of affected potato plants sprayed
Excerpt: as §2

Alternaria sobani [22] = assay: as above; type: in vivo; conditions: 5 m^2 plots of affected potato plants sprayed
Excerpt: as §2

Rhyzoctonia aderholdii [23] = assay: as above; type: in vivo; conditions: 5 m^2 plots of affected potato plants sprayed
Excerpt: as §2

Penicillium cyclopium [24] = assay: as above; type: in vivo; conditions: 5 m^2 plots of affected potato plants sprayed
Excerpt: as §2

Botrytis cinereae [25] = assay: as above; type: in vivo; conditions: 5 m^2 plots of affected potato plants sprayed
Excerpt: as §2

Aspergillus fumigatis [26] = assay: as above; type: in vivo; conditions: 5 m^2 plots of affected potato plants sprayed
Excerpt: as §2

Diplodia zeae [27] = assay: as above; type: in vivo; conditions: 5 m^2 plots of affected potato plants sprayed
Excerpt: as §2

Venturia inaequalis [28] = assay: as above; type: in vivo; conditions: 5 m^2 plots of affected potato plants sprayed
Excerpt: as §2

Rhoma betae [29] = assay: as above; type: in vivo; conditions: 5 m^2 plots of affected potato plants sprayed
Excerpt: as §2

Fusarium moniliforme [30] = assay: as above; type: in vivo; conditions: 5 m^2 plots of affected potato plants sprayed
Excerpt: as §2

O=C(NP(=O)(NC(CO)C(O)c1ccc([N+](=O)[O-])cc1)NC(CO)C(O)c1ccc([N+](=O)[O-])cc1)c1ccc(Cl)cc1 (stereo not shown) [Example 12, para-chlorobenzoylamidophosphoric acid di-1-para-nitrophenyl-1,3-propandiol-2-amide]
Inhibition of growth of phytopathogenic fungi colonies, % Botrytis allii test laboratory (Botrytis allii [1]): 100%
Inhibition of growth of phytopathogenic fungi colonies, % Fusarium oxysporum test laboratory (Fusarium oxysporum [2]): 60%
Inhibition of growth of phytopathogenic fungi colonies, % Aspergillus niger test laboratory (Aspergillus niger [3]): 66%
Inhibition of growth of phytopathogenic fungi colonies, % Rhyzoctonia violaceae test laboratory (Rhyzoctonia violaceae [4]): 24%
Inhibition of growth of phytopathogenic fungi colonies, % Fusarium culmorum Tests laboratory (Fusarium culmorum [5]): 66%
Inhibition of growth of phytopathogenic fungi colonies, % Verticillium albo--atrum test laboratory (Verticillium albo-atrum [6]): 100%
Inhibition of growth of phytopathogenic fungi colonies, % Alternaria sobani test laboratory (Alternaria sobani [7]): 48%
Inhibition of growth of phytopathogenic fungi colonies, % Rhyzoctonia aderholdii test laboratory (Rhyzoctonia aderholdii [8]): 100%
Inhibition of growth of phytopathogenic fungi colonies, % Penicillium cyclopium Tests laboratory (Penicillium cyclopium [9]): 87%
Inhibition of growth of phytopathogenic fungi colonies, % Botrytis cinereae test laboratory (Botrytis cinereae [10]): 34%
Inhibition of growth of phytopathogenic fungi colonies, % Aspergillus fumigatis Tests laboratory (Aspergillus fumigatis [11]): 87%
Inhibition of growth of phytopathogenic fungi colonies, % Diplodia zeae test laboratory (Diplodia zeae [12]): 100%
Inhibition of growth of phytopathogenic fungi colonies, % Venturia inaequalis test laboratory (Venturia inaequalis [13]): 70%
Inhibition of growth of phytopathogenic fungi colonies, % Rhoma betae test laboratory (Rhoma betae [14]): 64%
Inhibition of growth of phytopathogenic fungi colonies, % Fusatium monili-forme test laboratory (Fusarium moniliforme [15]): 59%
solubility (Solubility (qualitative)): soluble in water, alcohols, acetone
Inhibition of growth of phytopathogenic fungi colonies, % Botrytis allii test field (Botrytis allii [16]): 99%
Inhibition of growth of phytopathogenic fungi colonies, % Fusarium oxysporum test field (Fusarium oxysporum [17]): 59%
Inhibition of growth of phytopathogenic fungi colonies, % Aspergillus niger test field (Aspergillus niger [18]): 59%
Inhibition of growth of phytopathogenic fungi colonies, % Rhyzoctonia violaceae test field (Rhyzoctonia violaceae [19]): 22%
Inhibition of growth of phytopathogenic fungi colonies, % Fusarium culmorum Tests field (Fusarium culmorum [20]): 61%
Inhibition of growth of phytopathogenic fungi colonies, % Verticillium albo--atrum test field (Verticillium albo-atrum [21]): 100%
Inhibition of growth of phytopathogenic fungi colonies, % Alternaria sobani test field (Alternaria sobani [22]): 46%
Inhibition of growth of phytopathogenic fungi colonies, % Rhyzoctonia aderholdii test field (Rhyzoctonia aderholdii [23]): 100%
Inhibition of growth of phytopathogenic fungi colonies, % Penicillium cyclopium Tests field (Penicillium cyclopium [24]): 84%
Inhibition of growth of phytopathogenic fungi colonies, % Botrytis cinereae test field (Botrytis cinereae [25]): 33%
Inhibition of growth of phytopathogenic fungi colonies, % Aspergillus fumigatis Tests field (Aspergillus fumigatis [26]): 80%
Inhibition of growth of phytopathogenic fungi colonies, % Diplodia zeae test field (Diplodia zeae [27]): 98%
Inhibition of growth of phytopathogenic fungi colonies, % Venturia inaequalis test field (Venturia inaequalis [28]): 65%
Inhibition of growth of phytopathogenic fungi colonies, % Rhoma betae test field (Rhoma betae [29]): 63%
Inhibition of growth of phytopathogenic fungi colonies, % Fusatium monili-forme test field (Fusarium moniliforme [30]): 56%

From patent EP0407583A1, “DERIVATIVES OF DICHLOR[…] ACYLAMIDO[…] AND INSECTICIDAL, FU[…] HEMATOCIDAL PREPARATIONS BASED ON THEM” (priority 1989, dated 1990)
